According to paper PMC10341764 (International Journal of Molecular Sciences, 2023):
Each block holds one compound with its values, some of them ahead of it.

How the values were obtained:
[1] = test system: adrenals; settings: cited from earlier work
[2] = molecular target: ACAT1; settings: cited from earlier work
[3] = test system: mouse model for EOAD; set-up: method as in PMID 15473963; settings: slow-releasing pellet implanted underneath the mouse skin; cited from earlier work
[4] = molecular target: ACAT2; settings: cited from earlier work
[5] = set-up: method as in PMID 12735237; settings: cited from earlier work
[6] = test system: ACAT enzyme; assay: ACAT enzyme activity in tissue homogenates after IV injection (mixed micelles assay); settings: judged by ACAT inhibition in brain
Protocol: Based on this finding, we treated the animals with the inhibitor by IV injection, perfused the mice after the animals were treated (to remove blood contamination from the tissues), then prepared the tissue homogenates, and monitored the ACAT enzyme activity in these tissues by using the mixed micelles enzyme assay described previously [24, 39, 49, 50] (the mixed micelles assay measures the ACAT enzyme activity independent of endogenous lipid composition because it reconstitutes the ACAT protein in mixed micelles with a defined lipid composition).

[7] = HPLC/MS/MS analysis of F12511 content in plasma and tissues; format: in vivo; settings: mouse, brain / plasma, intravenous, 46 mg F12511/kg; 12 to 24 h time point
Protocol: We also monitored the ACAT enzyme activities in various tissues 4 to 48 h after a single IV injection of nanoparticle F at 46 mg/kg.
Both compounds were dissolved in DMSO at 10 mg/mL and stored at −40 °C. Subsequent working dilutions were made in fresh acetonitrile (ACN) daily. Calibrators and quality control measures were used in the appropriate matrix: C57BL/6 plasma (anticoagulant: K3-EDTA, Innovative Research), brain homogenate, liver homogenate, and adrenal gland homogenate. The tissues were homogenized at 0.1 g/mL in diH2O by using stainless steel beads and a Next Advance Bullet Blender. All the samples (50 µL) were protein precipitated, with 150 µL of 10 ng/mL CP113,818 in ACN acting as an internal standard and added via vortex for 1 min and centrifugation for 5 min at 15,000 rpm. In total, 150 µL of supernatant was transferred to amber autosampler vials, and 10 µL was injected on the LC-MS/MS system. […] The heated ESI source was operated with a spray voltage of 4500 V, vaporizer temperature at 500 °C, capillary temperature at 250 °C, and sheath and auxiliary gases at 30 and 15 arbitrary units, respectively.

[8] = test system: 5xFAD mouse model; set-up: method as in PMID 37157042; settings: oral feeding for 60 days; cited from earlier work
[9] = test system: ACAT; set-up: method as in PMID 8937424, PMID 12536672; settings: cited from earlier work
[10] = test system: cortical regions; set-up: method as in PMID 23427273; settings: fed to mice for seven days; cited from earlier work
[11] = set-up: method as in PMID 31646241; settings: cited from earlier work

SMILES: CCCCCCCC[C@H](SCCCCCC)C(=O)Nc1c(SC)cc(C)nc1SC [CP113,818]
adrenal accumulation and toxicity ([1]; preclinical trial, animals): accumulated in adrenals in animals and caused toxicity | Ki [2]: 20 nM | amyloidopathy [3]: effective in suppressing amyloidopathy | Ki [4]: 20 nM

permeability to the mouse brain as part of nanoparticles [6]: permeable to the mouse brain | Kp [7]: 0.005 to 0.01
SMILES: CCCCCCCCCCCCS[C@H](C(=O)Nc1cc(C)c(O)c(C)c1C)c1ccccc1 [F12511, (S)-2′,3′,5′-trimethyl-4′-hydroxy-alpha-dodecylthio-alpha-phenylacetanilide]
adrenal toxicity in animals [1]: did not cause adrenal toxicity in animals | clinical phase 1 safety tests [5]: passed clinical phase 1 safety tests | Ki [4]: 110 nM

SMILES: CC(C)c1cc(C(C)C)c(CC(=O)NS(=O)(=O)Oc2c(C(C)C)cccc2C(C)C)c(C(C)C)c1 [CI1011, 2,6-bis(1-methylethyl)phenyl ((2,4,6-tris(1-methylethyl)phenyl)acetyl)sulfamate]
Ki [2]: 20000 nM | clinical phase 1 safety tests [5]: passed clinical phase 1 safety tests | amyloidopathy and other AD-like pathologies [8]: ameliorated amyloidopathy and other AD-like pathologies | Ki [4]: 20000 nM

SMILES: CCCCCCCCC(SCCCCCC)C(=O)Nc1c(SC)cc(C)nc1SC (single isomer, unassigned) [enantiomeric isomer of CP113,818]
adrenal toxicity [1]: causes severe adrenal toxicity | activity as ACAT inhibitor [9]: inactive as an ACAT inhibitor

SMILES: O=C(O)C[C@H]1CC[C@H](c2ccc(NC(=O)c3nnc(Nc4ccc(F)c(F)c4)o3)cc2)CC1 [AZD3988]
fine vacuolation in cortical regions [10]: significant reduction in fine vacuolation in cortical regions

SMILES: CSc1cc(C)nc(SC)c1NC(=O)CN1CCN(CCSc2nc3ccccc3[nH]2)CC1.Cl.Cl [K604, 2-[4-[2-(Benzimidazol-2-ylthio)ethyl]piperazin-1yl]-N-[2,4-bis(methylthio)-6-methyl-3-pyridyl]acetamide dihydrochloride]
permeability to the mouse brain [11]: impermeable to the mouse brain | clinical phase 1 safety tests [5]: passed clinical phase 1 safety tests
